Data as given in patent US9382204B2, “Inhibitors targeting the DNA-binding domain of human STAT3 for treatment of metastatic cancers” (Indiana University Research and Technology Corporation, priority 2013, dated 2016).
Read-outs that look alike come from different tables or passages of the source.

Legend:
[1] = system: STAT3; assay: STAT3-dependent luciferase reporter assay in MDA-MB-231-STAT3 stable cells; assay type: cell-based, human; conditions: for potency compared with the original compound inS3-54 / Rel. luciferase activity (%) 1 / Rel. luciferase activity (%) 2 / Rel. luciferase activity (%) 3 / Rel. luciferase activity (%) Mean / inhibition of luciferase expression compared to DMSO vehicle control: 20 μM; for potency compared with the original compound inS3-54: STAT3-dependent luciferase expression; for Rel. luciferase activity (%) 1: experiment 1, relative to DMSO; for Rel. luciferase activity (%) 2: experiment 2, relative to DMSO; for Rel. luciferase activity (%) 3: experiment 3, relative to DMSO; for Rel. luciferase activity (%) Mean: mean of experiments, relative to DMSO; for inhibition of luciferase expression compared to DMSO vehicle control: significant = p value less than 0.05
Outline: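 MDA-MB-231 cells stably carrying a STAT3-dependent luciferase reporter, exposed to compounds at 20 μM for 48 h (0.1% v/v DMSO final), then luciferase activity measured. Concentration-response treatments ran 72 h; STAT3-independent control used H1299 cells transiently transfected with p27-promoter luciferase, 48 h.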

[2] = target: T1, STAT1 (Homo sapiens, UniProt P42224); assay: Electrophoretic mobility shift assay (EMSA), DNA-binding activity of STAT1; assay type: biochemical
T1 construct: expressed in transfected cells; host or cells: H1299
T1 sequence (P42224 1-750): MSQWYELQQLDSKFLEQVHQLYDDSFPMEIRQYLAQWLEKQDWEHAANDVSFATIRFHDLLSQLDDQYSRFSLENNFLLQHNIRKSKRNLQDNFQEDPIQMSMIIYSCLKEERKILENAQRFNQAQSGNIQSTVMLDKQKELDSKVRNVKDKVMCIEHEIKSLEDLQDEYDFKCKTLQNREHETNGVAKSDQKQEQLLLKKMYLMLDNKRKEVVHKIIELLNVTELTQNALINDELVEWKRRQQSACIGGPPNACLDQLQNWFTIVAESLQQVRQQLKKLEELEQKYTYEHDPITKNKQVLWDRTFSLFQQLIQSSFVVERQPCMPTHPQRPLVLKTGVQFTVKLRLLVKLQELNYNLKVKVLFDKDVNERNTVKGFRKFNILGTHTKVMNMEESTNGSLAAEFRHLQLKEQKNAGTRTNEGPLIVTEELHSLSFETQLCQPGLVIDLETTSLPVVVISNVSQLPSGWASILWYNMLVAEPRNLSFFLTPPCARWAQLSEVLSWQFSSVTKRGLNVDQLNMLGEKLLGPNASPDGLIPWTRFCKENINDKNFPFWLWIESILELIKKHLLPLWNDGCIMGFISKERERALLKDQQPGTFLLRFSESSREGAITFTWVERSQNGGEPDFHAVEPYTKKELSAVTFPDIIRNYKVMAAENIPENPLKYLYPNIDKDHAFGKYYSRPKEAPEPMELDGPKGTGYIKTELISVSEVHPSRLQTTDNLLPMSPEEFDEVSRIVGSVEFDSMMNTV
Procedure: H1299 cells were transiently transfected with FLAG-tagged STAT3 or STAT1 expression construct. Forty-eight hours following transfection, cells were harvested and lysed with 3 cycles of freeze and thaw. 10-20 μg lysate was mixed with 2 μg poly (dI-dC), 1 μg BSA in binding buffer (10 mM HEPES, pH7.9, 50 mM KCl, 10% Glycerol, 0.2 mg/ml BSA, 1 mM DTT and 0.2 mM PMSF), and 4×10^4 cpm [32P]-labeled SIE probe in a total volume of 20 μL. The mixture was incubated for 20 minutes at room temperature and separated on 6% non-denaturing PAGE. The signal was detected by autoradiography. For supershift and competition, 2 μL specific antibodies against STAT3 or STAT1 or 100-fold cold SIE probe (5′-[…]-3′-SEQ ID NO: 1) was added to the reaction mixture and incubated for 30 minutes before adding labeled SIE probe. To determine the effect of inS3-54 on STAT3 or STAT1 binding to SIE probe, inS3-54 was first diluted with DMSO and equal volume of diluted inS3-54 was added to the reaction mixture followed by incubation at room temperature for 30 minutes before incubating with the labeled SIE probe.
EMSA (electrophoretic mobility shift assay) was used for testing in-vitro DNA-binding activity of STAT3 as previously described, Briefly, 20 μg lysate of H1299 cells with transient expression of FLAG-tagged STAT3c or STAT1 was pre-incubated with compounds or vehicle, specific antibodies to STAT3 or STAT1 (Santa Cruz), or excess cold SIE probe (5′-[…]-3′ SEQ ID NO: 2) for 30 mins at room temperature in binding buffer (0.1 μg/μL poly(dI·dC), 10 mM HEPES·KOH, pH 7.9, 50 mM KCl, 10% glycerol, 0.05 μg/μL BSA, 1 mM DTT and 0.2 mM PMSF) before incubating with 4×10^4 cpm [^32P]-labeled SIE probe for 20 min at room temperature. The reactions were separated on 6% non-denaturing polyacrylamide gel signals were detected by autoradiography.

CC(=O)Nc1ccc(N2C(=O)C(=Cc3ccc(Cl)cc3)C=C2c2ccccc2)cc1 [Compound A26]
potency compared with the original compound inS3-54 [1]: more potent | Rel. luciferase activity (%) 1 [1]: 38.0% | Rel. luciferase activity (%) 2 [1]: 27.5% | Rel. luciferase activity (%) 3 [1]: 13.2% | Rel. luciferase activity (%) Mean [1]: 26.2% | inhibition of luciferase expression compared to DMSO vehicle control [1]: significantly inhibited | specific binding of DNA probe to STAT1 (EMSA) ([2]; up to 100 μM): not affected

O=C(O)c1ccc(N2C(=O)/C(=C/c3ccc([N+](=O)[O-])cc3)C=C2c2ccccc2)cc1 [inS3-54, 4-[(3E)-3-[(4-nitrophenyl)-methylidene]-2-oxo-5-phenylpyrrol-1-yl]benzoic acid]
IC50 ([1]; Homo sapiens, MDA-MB-231, read-out: IC50 in suppressing STAT3-dependent luciferase reporter expression, MDA-MB-231 cells): ~15.8 µM | activity at 20 µM ([1]; Homo sapiens, read-out: Rel. luciferase activity (%) 1): 34.2% | activity at 20 µM ([1]; Homo sapiens, read-out: Rel. luciferase activity (%) 2): 37.2% | activity at 20 µM ([1]; Homo sapiens, read-out: Rel. luciferase activity (%) 3): 41% | activity at 20 µM ([1]; Homo sapiens, read-out: Rel. luciferase activity (%) Mean): 37.5% | IC50 ([1]; read-out: IC50 in suppressing STAT3-dependent luciferase reporter expression, MDA-MB-231 cells): 13.8 ± 0.4 µM | specific binding of DNA probe to STAT1 (EMSA) ([2]; up to 300 μM): not affected

O=C1C(=Cc2ccc(Cl)cc2)C=C(c2ccccc2)N1c1ccc(O)cc1 [Compound A18]
potency compared with the original compound inS3-54 [1]: more potent | Rel. luciferase activity (%) 1 [1]: 16.3% | Rel. luciferase activity (%) 2 [1]: 13.2% | Rel. luciferase activity (%) 3 [1]: 12.3% | Rel. luciferase activity (%) Mean [1]: 14.0% | inhibition of luciferase expression compared to DMSO vehicle control [1]: significantly inhibited | specific binding of DNA probe to STAT1 (EMSA) ([2]; up to 100 μM): not affected
